From patent US9079919B2 (HOFFMANN-LA ROCHE INC., priority 2011, dated 2015) come the findings set out here.

Molecules are shown by their SMILES. Structures can show the parent of a compound that is named as a salt.

The target in the test is T1, BACE1 (Homo sapiens, UniProt P56817).
T1 construct: Human HEK293 cells which are stably transfected with a vector expressing a cDNA of the human APP wt gene (APP695); endogenous in cells; host or cells: HEK293 cells stably transfected with human APP695 (wt)
T1 sequence (P56817 46-501): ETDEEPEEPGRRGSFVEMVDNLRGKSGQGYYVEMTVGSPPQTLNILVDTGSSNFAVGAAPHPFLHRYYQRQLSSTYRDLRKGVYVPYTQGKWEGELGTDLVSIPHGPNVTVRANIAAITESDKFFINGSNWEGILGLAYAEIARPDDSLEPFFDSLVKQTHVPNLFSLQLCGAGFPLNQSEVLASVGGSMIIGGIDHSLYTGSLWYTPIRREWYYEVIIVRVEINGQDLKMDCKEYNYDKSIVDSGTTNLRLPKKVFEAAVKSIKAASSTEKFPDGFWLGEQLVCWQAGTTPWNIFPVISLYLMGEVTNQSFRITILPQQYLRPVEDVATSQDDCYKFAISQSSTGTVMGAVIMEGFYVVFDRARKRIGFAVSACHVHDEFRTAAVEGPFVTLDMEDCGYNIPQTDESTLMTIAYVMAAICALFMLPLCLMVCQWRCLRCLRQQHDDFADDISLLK
The test can be described thus: Cellular Aβ-lowering assay b) (Abeta 40 AlphaLISA Assay). The format is cell-based. As to conditions: cellular assay b): HEK293 APP cells, Aβ40 in supernatant by AlphaLISA after 18-20 hrs; read-out: BACE1 cell act. Aβ40 IC50. The protocol: b) Alternatively, the Abeta 40 AlphaLISA Assay can be used. The HEK293 APP cells were seeded in 96 well Microtiter plates in cell culture medium (Iscove's, plus 10% (v/v) fetal bovine serum, penicillin/streptomycin) to about 80% confluency and the compounds were added at a 3× concentration in 1/3 volume of culture medium (final DMSO concentration was kept at 1% v/v). After 18-20 hrs incubation at 37° C. and 5% CO2 in a humidified incubator, the culture supernatants were harvested for the determination of Aβ 40 concentrations using Perkin-Elmer Human Amyloid beta 1-40 (high specificity) Kit (Cat#AL275C).
In a Perkin-Elmer White Optiplate-384 (Cat#6007290), 2 ul culture supernatants were combined with 2 μl of a 10× AlphaLISA Anti-hAβ Acceptor beads+Biotinylated Antibody Anti-Aβ 1-40 Mix (50 μg/mL/5 nM). After 1 hour room temperature incubation, 16 μl of a 1.25× preparation of Streptavidin (SA) Donor beads (25 μg/mL) were added and incubated for 30 minutes in the Dark. Light Emission at 615 nm was then recorded using EnVision-Alpha Reader. Levels of Aβ 40 in the culture supernatants were calculated as percentage of maximum signal (cells treated with 1% DMSO without inhibitor). The IC50 values were calculated using the Excel XLfit software.
(In Alpha technology, singlet oxygen from a donor bead excites a nearby acceptor bead.)
For orientation: IC50 means the concentration at which inhibition is half-maximal. For `NC1=N[C@@]2(C[C@@]3(CCCOC3)Oc3ccc(-c4cncc(Cl)c4)cc32)C(F)(F)CO1` [Example 29, (2′R,4R)-6′-(5-Chloropyridin-3-yl)-5,5-difluoro-5,5″,6,6″-tetrahydro-4″H-dispiro[1,3-oxazine-4,4′-chromene-2′,3″-pyran]-2-amine formate], the IC50 came out at 4.43 µM. As to `N#Cc1cccc(-c2ccc3c(c2)[C@@]2(C[C@@]4(CCCOC4)O3)N=C(N)OCC2(F)F)c1` [Example 30, 3-[(2′R,4R)-2-Amino-5,5-difluoro-5,5″,6,6″-tetrahydro-4″H-dispiro[1,3-oxazine-4,4′-chromene-2′,3″-pyran]-6′-yl]benzonitrile formate], the IC50 came out at 6.58 µM. Turning to `N#Cc1cncc(-c2ccc3c(c2)[C@@]2(CC3)N=C(N)OCC2(F)F)c1` [Example 11, (R)-5-(2′-Amino-5′,5′-difluoro-2,3,5′,6′-tetrahydrospiro[indene-1,4′-[1,3]oxazine]-6-yl)nicotinonitrile], the IC50 turned out to be 3.38 µM. `N#Cc1ccc(C(=O)Nc2ccc3c(c2)[C@@]2(C[C@@]4(CCCOC4)O3)N=C(N)OCC2(F)F)nc1` [Example 44, N-[(2′R,4R)-2-Amino-5,5-difluoro-5,5″,6,6″-tetrahydro-4″H-dispiro[1,3-oxazine-4,4′-chromene-2′,3″-pyran]-6′-yl]-5-cyanopyridine-2-carboxamide]: the IC50 stood at 5.17 µM.
